# Measurements from patent US20240109917A1 (ACTELION PHARMACEUTICALS LTD, priority 2020, published 2024).
# Biological target: His6-TEV-PDGFRβ (557-1016) (Homo sapiens (Human), UniProt P09619)
# Experiment: PDGFRβ HTRF Assay
# Assay type: biochemical
# Settings: read-out: PDGFR HTRF IC50
# In short: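 HTRF KinEASE-TK readout (665/620 nm ratio) of TK-biotin substrate phosphorylation by His-tagged PDGFRβ kinase domain. Enzyme and inhibitor preincubated 30 min, then ATP/substrate added for 3 h at room temperature before 60 min EDTA quench/detection.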
# His6-TEV-PDGFRβ (557-1016), sequence (P09619 557-1016): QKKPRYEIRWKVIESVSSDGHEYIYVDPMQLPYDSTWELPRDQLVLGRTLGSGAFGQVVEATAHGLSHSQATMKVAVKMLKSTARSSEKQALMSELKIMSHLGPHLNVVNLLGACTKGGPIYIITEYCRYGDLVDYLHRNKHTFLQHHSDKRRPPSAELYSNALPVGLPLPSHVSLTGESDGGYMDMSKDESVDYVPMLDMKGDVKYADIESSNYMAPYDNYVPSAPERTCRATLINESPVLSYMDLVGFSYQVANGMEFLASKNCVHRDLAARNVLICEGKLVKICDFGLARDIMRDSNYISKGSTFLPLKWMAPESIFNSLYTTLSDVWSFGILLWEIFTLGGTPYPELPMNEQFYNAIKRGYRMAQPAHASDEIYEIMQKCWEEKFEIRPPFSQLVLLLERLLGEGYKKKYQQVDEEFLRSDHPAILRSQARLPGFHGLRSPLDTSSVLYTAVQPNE
row,SMILES,IC50
1,"Cc1ncc(C(=O)NCCN2CCCC2(C)C)cc1NC(=O)c1cnn2cc(-c3cnn4c3COCC4)sc12 [Example 450, 2-(6,7-dihydro-4H-pyrazolo[5,1-c][1,4]oxazin-3-yl)-N-(5-((2-(2,2-dimethylpyrrolidin-1-yl)ethyl)carbamoyl)-2-methylpyridin-3-yl)pyrazolo[5,1-b]thiazole-7-carboxamide]",0.4 nM
2,"Cc1ncc(NC(=O)CN2CCCC23CCC3)cc1NC(=O)c1cnn2cc(-c3cnn4c3COCC4)sc12 [Example 417, N-(5-(2-(5-azaspiro[3.4]octan-5-yl)acetamido)-2-methylpyridin-3-yl)-2-(6,7-dihydro-4H-pyrazolo[5,1-c][1,4]oxazin-3-yl)pyrazolo[5,1-b]thiazole-7-carboxamide]",0.4 nM
3,"Cc1ncc(NC(=O)CNC2CCCC2)cc1NC(=O)c1cnn2cc(-c3cnn4c3OCCC4)sc12 [Example 421, N-(5-(2-(cyclopentylamino)acetamido)-2-methylpyridin-3-yl)-2-(6,7-dihydro-5H-pyrazolo[5,1-b][1,3]oxazin-3-yl)pyrazolo[5,1-b]thiazole-7-carboxamide]",0.2 nM
4,"Cc1ncc(NC(=O)CN2CC(C)(C)C2)cc1NC(=O)c1cnn2cc(-c3cnn4c3CCC4)sc12 [Example 409, 2-(5,6-dihydro-4H-pyrrolo[1,2-b]pyrazol-3-yl)-N-(5-(2-(3,3-dimethylazetidin-1-yl)acetamido)-2-methylpyridin-3-yl)pyrazolo[5,1-b]thiazole-7-carboxamide]",0.2 nM
5,"Cc1ncc(C(=O)NCCN2CCCC23CCC3)cc1NC(=O)c1cnn2cc(-c3cnn4c3OCCC4)sc12 [Example 478, N-(5-((2-(5-azaspiro[3.4]octan-5-yl)ethyl)carbamoyl)-2-methylpyridin-3-yl)-2-(6,7-dihydro-5H-pyrazolo[5,1-b][1,3]oxazin-3-yl)pyrazolo[5,1-b]thiazole-7-carboxamide]",0.3 nM
6,"Cc1ncc(NC(=O)CN2CC(C)(C)C2)cc1NC(=O)c1cnn2cc(-c3ccnnc3C)sc12 [Example 410, N-(5-(2-(3,3-dimethylazetidin-1-yl)acetamido)-2-methylpyridin-3-yl)-2-(3-methylpyridazin-4-yl)pyrazolo[5,1-b]thiazole-7-carboxamide]",6.2 nM
7,"Cc1ncc(NC(=O)CN2CCCCCC2)cc1NC(=O)c1cnn2cc(-c3cnn4c3OCCC4)sc12 [Example 420, N-(5-(2-(azepan-1-yl)acetamido)-2-methylpyridin-3-yl)-2-(6,7-dihydro-5H-pyrazolo[5,1-b][1,3]oxazin-3-yl)pyrazolo[5,1-b]thiazole-7-carboxamide]",0.2 nM
8,"Cc1ncc(NC(=O)CN2CC(C)(C)C2)cc1NC(=O)c1cnn2cc(-c3cn(C)nc3C)sc12 [Example 430, 2-(1,3-Dimethyl-1H-pyrazol-4-yl)-N-(5-(2-(3,3-dimethylazetidin-1-yl)acetamido)-2-methylpyridin-3-yl)pyrazolo[5,1-b]thiazole-7-carboxamide]",0.2 nM
9,"CCOc1ncccc1-c1cn2ncc(C(=O)Nc3cc(NC(=O)CN4CC(C)(C)C4)cnc3C)c2s1 [Example 436, N-(5-(2-(3,3-Dimethylazetidin-1-yl)acetamido)-2-methylpyridin-3-yl)-2-(2-ethoxypyridin-3-yl)pyrazolo[5,1-b]thiazole-7-carboxamide]",0.1 nM
10,"COCCn1cc(-c2cn3ncc(C(=O)Nc4cc(NC(=O)CCC5CCCN5C)cnc4C)c3s2)cn1 (stereo not drawn) [Example 462, 2-(1-(2-methoxyethyl)-1H-pyrazol-4-yl)-N-(2-methyl-5-(3-(1-methylpyrrolidin-2-yl)propanamido)pyridin-3-yl)pyrazolo[5,1-b]thiazole-7-carboxamide]",0.7 nM
11,"Cc1ncc(NC(=O)CN2CC(C)(C)C2)cc1NC(=O)c1cnn2cc(-c3cnn(C(F)F)c3)sc12 [Example 428, 2-(1-(difluoromethyl)-1H-pyrazol-4-yl)-N-(5-(2-(3,3-dimethylazetidin-1-yl)acetamido)-2-methylpyridin-3-yl)pyrazolo[5,1-b]thiazole-7-carboxamide]",0.8 nM
12,"Cc1ncc(NC(=O)CN2CC3(CCCCO3)C2)cc1NC(=O)c1cnn2cc(-c3cnn4c3CCC4)sc12 [Example 424, N-(5-(2-(5-oxa-2-azaspiro[3.5]nonan-2-yl)acetamido)-2-methylpyridin-3-yl)-2-(5,6-dihydro-4H-pyrrolo[1,2-b]pyrazol-3-yl)pyrazolo[5,1-b]thiazole-7-carboxamide]",0.3 nM
13,"Cc1ncc(C(=O)NCC2CCCN2C)cc1NC(=O)c1cnn2cc(-c3cnn4c3CCC4)sc12 (stereo not drawn) [Example 469, 2-(5,6-dihydro-4H-pyrrolo[1,2-b]pyrazol-3-yl)-N-(2-methyl-5-(((1-methylpyrrolidin-2-yl)methyl)carbamoyl)pyridin-3-yl)pyrazolo[5,1-b]thiazole-7-carboxamide]",0.3 nM
14,"Cc1ncc(NC(=O)CN2CCCC2(C)C)cc1NC(=O)c1cnn2cc(-c3cccnc3OCCF)sc12 [Example 448, N-(5-(2-(2,2-dimethylpyrrolidin-1-yl)acetamido)-2-methylpyridin-3-yl)-2-(2-(2-fluoroethoxy)pyridin-3-yl)pyrazolo[5,1-b]thiazole-7-carboxamide]",0.2 nM
15,"Cc1ncc(C(=O)NCC2CCCN2C)cc1NC(=O)c1cnn2cc(-c3cnn4c3OCCC4)sc12 (stereo not drawn) [Example 470, 2-(6,7-dihydro-5H-pyrazolo[5,1-b][1,3]oxazin-3-yl)-N-(2-methyl-5-(((1-methylpyrrolidin-2-yl)methyl)carbamoyl)pyridin-3-yl)pyrazolo[5,1-b]thiazole-7-carboxamide]",0.5 nM
16,"Cc1ncc(NC(=O)CN2CC3(CCCCO3)C2)cc1NC(=O)c1cnn2cc(-c3cnn4c3OCCC4)sc12 [Example 423, N-(5-(2-(5-oxa-2-azaspiro[3.5]nonan-2-yl)acetamido)-2-methylpyridin-3-yl)-2-(6,7-dihydro-5H-pyrazolo[5,1-b][1,3]oxazin-3-yl)pyrazolo[5,1-b]thiazole-7-carboxamide]",0.4 nM
17,"Cc1ncc(NC(=O)CN2CCCC23CCC3)cc1NC(=O)c1cnn2cc(-c3cnc4n3CCOC4)sc12 [Example 418, N-(5-(2-(5-azaspiro[3.4]octan-5-yl)acetamido)-2-methylpyridin-3-yl)-2-(5,6-dihydro-8H-imidazo[2,1-c][1,4]oxazin-3-yl)pyrazolo[5,1-b]thiazole-7-carboxamide]",0.5 nM
18,"Cc1ncc(NC(=O)CN2CCC23CCC3)cc1NC(=O)c1cnn2cc(-c3cnn4c3COCC4)sc12 [Example 475, N-(5-(2-(1-azaspiro[3.3]heptan-1-yl)acetamido)-2-methylpyridin-3-yl)-2-(6,7-dihydro-4H-pyrazolo[5,1-c][1,4]oxazin-3-yl)pyrazolo[5,1-b]thiazole-7-carboxamide]",0.2 nM
19,"CCCNCC(=O)Nc1cnc(C)c(NC(=O)c2cnn3cc(-c4cnn5c4CCC5)sc23)c1 [Example 456, 2-(5,6-dihydro-4H-pyrrolo[1,2-b]pyrazol-3-yl)-N-(2-methyl-5-(2-(propylamino)acetamido)pyridin-3-yl)pyrazolo[5,1-b]thiazole-7-carboxamide]",0.4 nM
20,"Cc1ncc(C(=O)NCCN2CC(C)(C)C2)cc1NC(=O)c1cnn2cc(-c3cnn4c3CCC4)sc12 [Example 482, 2-(5,6-dihydro-4H-pyrrolo[1,2-b]pyrazol-3-yl)-N-(5-((2-(3,3-dimethylazetidin-1-yl)ethyl)carbamoyl)-2-methylpyridin-3-yl)pyrazolo[5,1-b]thiazole-7-carboxamide]",0.2 nM
21,"Cc1ncc(NC(=O)CN2CCC[C@H]2C)cc1NC(=O)c1cnn2cc(-c3nn(C)nc3C)sc12 [Example 443, (R)-2-(2,5-dimethyl-2H-1,2,3-triazol-4-yl)-N-(2-methyl-5-(2-(2-methylpyrrolidin-1-yl)acetamido)pyridin-3-yl)pyrazolo[5,1-b]thiazole-7-carboxamide]",0.4 nM
22,"Cc1ncc(NC(=O)CN2C[C@@H](C)O[C@H](C)C2)cc1NC(=O)c1cnn2cc(-c3cnn(C)c3C)sc12 (relative stereo) [Example 433, 2-(1,5-Dimethyl-1H-pyrazol-4-yl)-N-(5-(2-(trans-2,6-dimethylmorpholino)acetamido)-2-methylpyridin-3-yl)pyrazolo[5,1-b]thiazole-7-carboxamide]",0.5 nM
23,"Cc1ncc(NC(=O)CN2CC3(COC3)C2)cc1NC(=O)c1cnn2cc(-c3cnn4c3OCCC4)sc12 [Example 411, N-(5-(2-(2-oxa-6-azaspiro[3.3]heptan-6-yl)acetamido)-2-methylpyridin-3-yl)-2-(6,7-dihydro-5H-pyrazolo[5,1-b][1,3]oxazin-3-yl)pyrazolo[5,1-b]thiazole-7-carboxamide]",0.5 nM
24,"COCCn1cc(-c2cn3ncc(C(=O)Nc4cc(NC(=O)CCC5CCCN5C(C)C)cnc4C)c3s2)cn1 (stereo not drawn) [Example 463, N-(5-(3-(1-isopropylpyrrolidin-2-yl)propanamido)-2-methylpyridin-3-yl)-2-(1-(2-methoxyethyl)-1H-pyrazol-4-yl)pyrazolo[5,1-b]thiazole-7-carboxamide]",0.7 nM
25,"COCCn1cc(-c2cn3ncc(C(=O)Nc4cc(NC(=O)CCN5CCCC5(C)C)cnc4C)c3s2)cn1 [Example 41, N-(5-(3-(2,2-dimethylpyrrolidin-1-yl)propanamido)-2-methylpyridin-3-yl)-2-(1-(2-methoxyethyl)-1H-pyrazol-4-yl)pyrazolo[5,1-b]thiazole-7-carboxamide]",0.43 nM
26,"Cc1ncc(NC(=O)CNCC2CC2)cc1NC(=O)c1cnn2cc(-c3cnn4c3CCC4)sc12 [Example 454, N-(5-(2-((cyclopropylmethyl)amino)acetamido)-2-methylpyridin-3-yl)-2-(5,6-dihydro-4H-pyrrolo[1,2-b]pyrazol-3-yl)pyrazolo[5,1-b]thiazole-7-carboxamide]",0.4 nM
27,"Cc1ncc(NC(=O)CN2CC(C)(C)C2)cc1NC(=O)c1cnn2cc(-c3cnn(CCS(C)(=O)=O)c3)sc12 [Example 435, N-(5-(2-(3,3-Dimethylazetidin-1-yl)acetamido)-2-methylpyridin-3-yl)-2-(1-(2-(methylsulfonyl)ethyl)-1H-pyrazol-4-yl)pyrazolo[5,1-b]thiazole-7-carboxamide]",0.6 nM
